{"source": "patent US20120270293A1", "about": "“STAND[…] TISSUE SPECIMEN PR[…] […] T[…]” (priority 2009, published 2012)", "target": "RNase A (Bos taurus, UniProt P61823)", "sequence (P61823 27-150)": "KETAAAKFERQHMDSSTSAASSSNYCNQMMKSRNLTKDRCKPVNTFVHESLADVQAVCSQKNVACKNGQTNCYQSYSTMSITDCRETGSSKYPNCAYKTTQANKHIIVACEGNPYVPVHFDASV", "conditions": "free solution reaction", "method": "FIG. 13. RNase A at designated amount was incubated with NBF at RT or 4° C. for 5 min and then mixed with 2 μg yeast tRNA and incubated at room temperature for 30 min for RNase A digestion and separated by 2% agarose gel. The tRNA molecules were between 50-100 nucleotides in length.\nWe have designed a series of direct forward biochemistry experiments to compare various chemical reagents such as formalin, RNA Later, methanol/alcohol, as well as heating conditions (boiling or autoclaving) in inhibiting the RNase bioactivity. […] We also compare the inhibition ability of formalin at room temperature and 4 degree C."}
{"smiles": "C=O", "note": "[formalin]", "values": [{"measurement": "inhibiting the RNase bioactivity", "setting": "compared with RNA Later, methanol/alcohol, boiling or autoclaving", "result": "best RNase inhibitor"}, {"measurement": "inhibition ability of formalin at room temperature and 4 degree C", "setting": "room temperature versus 4 degree C", "result": "No difference"}]}
